In patent publication US20260317319A1, “NOVEL ERGOLINES AND METHODS OF TREATING MOOD DISORDERS” (Gilgamesh Pharma Inc., priority 2023, published 2026):
Like-named read-outs stand apart in the source and are kept apart here.

Experiments:
5-HT2A receptor [1] = target: T1, 5-HT2A receptor (Homo sapiens, UniProt P28223); assay: cell-based; type: cell-based; parameters: expressed in transfected cells; host or cells: HEK293, stably transfected; details: Ca2+ flux; for Emax: HEK293, agonist, HEK293, max dose, read-out: 5-HT2A % Act @ Max Dose; for EC50: agonist, HEK293
T1 sequence (P28223 whole entry): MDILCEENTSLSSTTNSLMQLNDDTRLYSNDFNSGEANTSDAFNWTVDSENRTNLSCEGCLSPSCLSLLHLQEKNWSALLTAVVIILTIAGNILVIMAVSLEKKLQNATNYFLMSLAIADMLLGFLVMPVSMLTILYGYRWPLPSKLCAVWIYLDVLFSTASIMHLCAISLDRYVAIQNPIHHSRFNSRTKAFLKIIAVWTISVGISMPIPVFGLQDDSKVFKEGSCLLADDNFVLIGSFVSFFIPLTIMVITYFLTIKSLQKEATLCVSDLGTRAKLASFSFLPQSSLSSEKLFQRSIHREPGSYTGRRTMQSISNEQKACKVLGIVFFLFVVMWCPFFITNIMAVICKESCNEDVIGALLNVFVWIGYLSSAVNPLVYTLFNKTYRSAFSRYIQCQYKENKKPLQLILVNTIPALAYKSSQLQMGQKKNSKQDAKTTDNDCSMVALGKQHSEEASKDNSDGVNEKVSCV
Summary of the method: (§1)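 Receptor agonism was assessed as intracellular calcium mobilization in stably transfected cells, with CHO cells additionally carrying Gα15 for the 5-HT1A readout. Calcium was monitored with Fluo-4 Direct dye.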

5-HT2C receptor = target: T2, 5-HT2C receptor (Homo sapiens, UniProt P28335); assay: cell-based; details: agonist, Ca2+ flux, Eurofins DiscoverX protocol; for Emax: max dose, read-out: 5-HT2C % Act @ Max Dose; for EC50: read-out: 5-HT2C EC50
T2 sequence (P28335 33-458): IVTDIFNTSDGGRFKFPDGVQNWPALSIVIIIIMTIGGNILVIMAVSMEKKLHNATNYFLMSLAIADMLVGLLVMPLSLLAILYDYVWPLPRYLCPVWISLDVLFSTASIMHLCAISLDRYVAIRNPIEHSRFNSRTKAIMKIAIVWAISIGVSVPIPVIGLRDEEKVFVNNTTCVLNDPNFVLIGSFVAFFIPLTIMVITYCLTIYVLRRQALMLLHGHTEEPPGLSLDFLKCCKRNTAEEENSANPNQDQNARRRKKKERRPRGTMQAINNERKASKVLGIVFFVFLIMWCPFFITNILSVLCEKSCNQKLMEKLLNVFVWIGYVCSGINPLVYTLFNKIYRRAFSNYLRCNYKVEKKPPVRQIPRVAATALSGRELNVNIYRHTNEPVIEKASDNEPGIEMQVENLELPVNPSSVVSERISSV

in vitro [2] = type: in vitro ADME, mouse; details: MLM (male CD-1) 0.50 mg/mL, NADPH 1 mM, 1 μM compound, pH 7.4, 37° C., 60 min; for microsomal CLint / half-life: mouse, microsomes; for microsomal CLint: read-out: Intrinsic clearance (Clint); for half-life: read-out: half-life (t1/2)
Excerpt: MLM Stability Pooled MLM from male CD-1 mice (BIOIVT M00501) were used.

in vitro [3] = type: in vitro ADME, rat; details: RLM (male Sprague-Dawley) 0.50 mg/mL, NADPH 1 mM, 1 μM compound, pH 7.4, 37° C., 60 min; for microsomal CLint / half-life: rat, microsomes; for microsomal CLint: read-out: Intrinsic clearance (Clint); for half-life: read-out: half-life (t1/2)
Excerpt: RLM Stability Pooled RLM from male Sprague-Dawley rats (Xenotech R1000) were used.

5-HT2A receptor [4] = target: T1, 5-HT2A receptor; assay: biochemical; type: binding; parameters: expressed in transfected cells; host or cells: HEK293, stably transfected; details: [3H]ketanserin 1 nM; HEK293 stable cell line; 1 h, 25 °C
Summary of the method: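 Binding affinity comes from a [^3H]ketanserin radioligand assay run under literature-adapted conditions.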

5-HT2B receptor = target: T3, 5-HT2B receptor (Homo sapiens, UniProt P41595); assay: cell-based; type: cell-based; details: Ca2+ flux; for Emax: HEK293, agonist, HEK293, max dose, read-out: 5-HT2B % Act @ Max Dose; for EC50: agonist, HEK293
T3 construct: expressed in transfected cells; host or cells: HEK293, stably transfected
T3 sequence (P41595 whole entry): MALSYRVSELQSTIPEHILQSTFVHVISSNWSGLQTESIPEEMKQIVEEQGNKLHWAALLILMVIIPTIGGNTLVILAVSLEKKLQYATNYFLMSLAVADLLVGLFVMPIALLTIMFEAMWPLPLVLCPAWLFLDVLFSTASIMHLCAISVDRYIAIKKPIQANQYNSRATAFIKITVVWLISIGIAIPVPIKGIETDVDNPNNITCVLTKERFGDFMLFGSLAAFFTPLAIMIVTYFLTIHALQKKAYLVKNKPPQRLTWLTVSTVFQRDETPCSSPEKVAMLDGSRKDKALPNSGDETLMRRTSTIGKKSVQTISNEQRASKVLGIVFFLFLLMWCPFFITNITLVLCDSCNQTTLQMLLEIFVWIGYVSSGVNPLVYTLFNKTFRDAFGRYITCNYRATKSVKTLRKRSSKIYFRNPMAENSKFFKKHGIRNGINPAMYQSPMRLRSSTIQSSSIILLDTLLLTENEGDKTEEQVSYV
Summary of the method: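 FLIPR Tetra fluorescence read-out of calcium flux after compound addition. Receptor-expressing stable lines were used (HEK293 for 2A/2B; CHO with Gα15 for 1A), dye-loaded with Fluo-4 Direct and 2.5 mM final probenecid, 50 min at 37 °C.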

in vitro [5] = type: in vitro ADME, human; details: HLM 0.50 mg/mL, NADPH 1 mM, 1 μM compound, pH 7.4, 37° C., 60 min; for microsomal CLint / half-life: human, microsomes; for microsomal CLint: read-out: Intrinsic clearance (Clint); for half-life: read-out: half-life (t1/2)
5-HT1A receptor = target: T4, 5-HT1A receptor (Homo sapiens, UniProt P08908); assay: cell-based; details: agonist, Ca2+ flux; for Emax: CHO, CHO cells with Gα15, max dose, read-out: 5-HT1A % Act @ Max Dose; for EC50: CHO cells with Gα15
T4 construct: expressed in transfected cells; host or cells: CHO cells, stably transfected
T4 sequence (P08908 1-422): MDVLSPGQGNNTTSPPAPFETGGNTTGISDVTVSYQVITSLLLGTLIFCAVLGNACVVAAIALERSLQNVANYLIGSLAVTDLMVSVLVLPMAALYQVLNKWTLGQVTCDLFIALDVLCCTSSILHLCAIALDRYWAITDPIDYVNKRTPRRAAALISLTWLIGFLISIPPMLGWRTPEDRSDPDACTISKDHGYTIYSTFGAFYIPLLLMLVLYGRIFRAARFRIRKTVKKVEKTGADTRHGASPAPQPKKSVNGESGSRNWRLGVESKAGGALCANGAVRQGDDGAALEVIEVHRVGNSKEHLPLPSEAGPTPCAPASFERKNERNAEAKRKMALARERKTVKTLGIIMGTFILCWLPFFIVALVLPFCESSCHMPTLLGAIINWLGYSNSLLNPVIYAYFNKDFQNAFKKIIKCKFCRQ
Summary of the method: as §1

5-HT2A receptor [6] = target: T1, 5-HT2A receptor; assay: cell-based; type: cell-based; details: agonist, beta-arrestin recruitment, max dose; read-out: 5-HT2A Arrestin % Act @ Max Dose
Protocol: Arrestin Functional Assay at 5-HT2A. Recruitment of beta-arrestin was determined using a PathHunter assay at Eurofins DiscoverX (Fremont, CA) according to their standard protocols. PathHunter GPCR beta-arrestin assays take advantage of DiscoverX's proprietary Enzyme Fragment Complementation technology. The GPCR is fused in frame with a small enzyme donor fragment ProLink™ (PK) and co-expressed in cells stably expressing a fusion protein of beta-arrestin and the larger, N-terminal deletion mutant of beta-galactosidase. Activation of the GPCR (5-HT2A receptor in this case) stimulates binding of beta-arrestin to the PK-tagged GPCR and forces complementation of the two enzyme fragments, resulting in the formation of an active beta-galactosidase enzyme. This interaction leads to an increase in enzyme activity that can be measured using chemiluminescent PathHunter Detection Reagents. Briefly, PathHunter cells expressing 5-HT2A receptors were seeded in a volume of 20 μL into 384-well plates and incubated at 37° C. for the appropriate time prior to testing. […] Plates were then imaged on a microplate reader and the agonist activity was calculated using the following formula: % Activity=100%×(mean RLU of test sample-mean RLU of vehicle control)/(mean MAX control ligand-mean RLU of vehicle control), where RLU=relative light units.

Row | Compound | Emax (5-HT2A receptor [1]) | EC50 (5-HT2A receptor [1]) | Emax (5-HT2C receptor) | EC50 (5-HT2C receptor) | microsomal CLint (in vitro [2]) | half-life (in vitro [2]) | microsomal CLint (in vitro [3]) | half-life (in vitro [3]) | Ki (5-HT2A receptor [4]) | Emax (5-HT2B receptor) | EC50 (5-HT2B receptor) | microsomal CLint (in vitro [5]) | half-life (in vitro [5]) | Emax (5-HT1A receptor) | EC50 (5-HT1A receptor) | Emax (5-HT2A receptor [6]) | half-life (t1/2) (in vitro [2]) | half-life (t1/2) (in vitro [3]) | half-life (t1/2) (in vitro [5])
1 | CCN(CC)C(=O)[C@@H]1C=C2c3cccc4[nH]cc(c34)C[C@H]2N(Cc2ccc(F)c(F)c2)C1 [Compound 54, (6aR,9R)-7-(3,4-difluorobenzyl)-N,N-diethyl-4,6,6a,7,8,9-hexahydroindolo[4,3-fg]quinoline-9-carboxamide] | 59.2% | 1.87 µM | 8.36% | > 10 µM | 242 µL/min/mg | 5.7 min | 110 µL/min/mg | 12.6 min | 0.0054 µM | 0.91% | > 10 µM | 73.9 µL/min/mg | 18.7 min | 51% | > 100 µM |  |  |  | 
2 | CCCN1C[C@@H](C(=O)N[C@H](C)CC)C=C2c3cccc4[nH]cc(c34)C[C@H]21 [Compound 3a, (6aR,9S)—N—((R)-sec-butyl)-7-propyl-4,6,6a,7,8,9-hexahydroindolo[4,3-fg]quinoline-9-carboxamide] | 92% |  | 109% |  |  |  |  |  |  | 52.8% |  |  |  | 108% |  | 113% | 0.6 min | 1.4 min | 2.2 min
3 | CCN(CC)C(=O)[C@@H]1C=C2c3cccc4[nH]cc(c34)C[C@H]2N(Cc2ccc(C)cc2)C1 [Compound 97, (6aR,9R)—N,N-diethyl-7-(4-methylbenzyl)-4,6,6a,7,8,9-hexahydroindolo[4,3-fg]quinoline-9-carboxamide] |  | 0.0231 µM |  | 0.00406 µM | 511 µL/min/mg | 2.7 min | 532 µL/min/mg | 2.6 min | 0.0231 µM |  | 0.0166 µM | 63.5 µL/min/mg | 21.8 min | 84.5% | > 100 µM |  |  |  | 
4 | CCN(CC)C(=O)[C@H]1C=C2c3cccc4[nH]cc(c34)C[C@H]2N(CCCF)C1 [Compound 2a, (6aR,9S)—N,N-diethyl-7-(3-fluoropropyl)-4,6,6a,7,8,9-hexahydroindolo[4,3-fg]quinoline-9-carboxamide] | 90.3% |  | 119% |  |  |  |  |  |  | 40.1% |  |  |  | 96.8% |  | 83.3% | 1.776 min | 9.673 min | 17.018 min
5 | CC[C@@H](C)NC(=O)[C@H]1C=C2c3cccc4[nH]cc(c34)C[C@H]2N(CC)C1 [Compound 5a, (6aR,9S)—N—((R)-sec-butyl)-7-ethyl-4,6,6a,7,8,9-hexahydroindolo[4,3-fg]quinoline-9-carboxamide] | 89.6% |  | 99.4% |  |  |  |  |  |  | 43.7% |  |  |  | 112% |  | 62.4% | 1.7 min | 3.1 min | 5.5 min
6 | CCN(CC)C(=O)[C@@H]1C=C2c3cccc4[nH]cc(c34)C[C@H]2N(Cc2cccc(F)c2)C1 [Compound 52, (6aR,9R)—N,N-diethyl-7-(3-fluorobenzyl)-4,6,6a,7,8,9-hexahydroindolo[4,3-fg]quinoline-9-carboxamide] | 81.7% | 0.469 µM | 14.5% | > 10 µM | 338 µL/min/mg | 4.1 min | 302 µL/min/mg | 4.6 min | 0.00539 µM | 4.22% | > 10 µM | 77.9 µL/min/mg | 17.8 min | 93% | 7.99 µM |  |  |  | 
7 | C=CCN1C[C@@H](C(=O)N[C@H](C)CC)C=C2c3cccc4[nH]cc(c34)C[C@H]21 [Compound 8a, (6aR,9S)-7-allyl-N—((R)-sec-butyl)-4,6,6a,7,8,9-hexahydroindolo[4,3-fg]quinoline-9-carboxamide] | 87.5% |  | 13.3% |  |  |  |  |  |  | 35.7% |  |  |  | 90.3% |  | 81.1% | 0.8 min | 1.7 min | 3.4 min
